Measured values as given in patent US20170071203A1, “Active compound combinations having insecticidal properties” (BAYER CROPSCIENCE AKTIENGESELLSCHAFT, priority 2014, published 2017).

Key:
Type in all cases: in vivo
[1] = system: green peach aphid (Myzus persicae); experiment: Myzus persicae - spray test
Source text: (§1) The expected activity for a given combination of two active compounds can be calculated according to S. R. Colby, Weeds 15 (1967), 20-22 as follows:
(§2) • X is the kill rate, expressed in % of the untreated control, when active compound A is applied at an application rate of m g/ha or at a concentration of m ppm, • Y is the kill rate, expressed in % of the untreated control, when active compound B is applied at an application rate of n g/ha or at a concentration of n ppm and • E is the kill rate, expressed in % of the untreated control, when active compounds A and B is applied at application rates of m and n g/ha or at a concentration of m and n ppm, then
(§3) If the observed insecticidal efficacy of the combination is higher than the one calculated as “E”, then the combination of the two compounds is more than additive, i.e., there is a synergistic effect.
(§4) To produce a suitable preparation of active compound, 1 part by weight of active compound is mixed with the stated amount of solvents and is diluted with water, containing an emulsifier concentration of 1000 ppm, to the desired concentration. To produce a suitable preparation of a spore suspension the spores are diluted with emulsifier containing water to the desired concentration. Further test concentrations are prepared by dilution with emulsifier containing water.
Chinese cabbage (Brassica pekinensis) leaf disks infected with all instars of the green peach aphid (Myzus persicae), are sprayed with a preparation of the active ingredient of the desired concentration.
After the specified period of time, mortality in % is determined 100% means all aphids have been killed; 0% means none of the aphids have been killed. The mortality values determined thus are recalculated using the Colby-formula (see sheet 1).

[2] = system: two spotted spidermite (Tetranychus urticae); experiment: Tetranychus urticae - spray test, OP-resistant
Source text: as §1, §2, §3, §4
French bean (Phaseolus vulgaris) leaf disks which are heavily infested with all stages of the two spotted spidermite (Tetranychus urticae), are sprayed with a preparation of the active ingredient of the desired concentration.
After the specified period of time, mortality in % is determined. 100% means all spider mites have been killed and 0% means none of the spider mites have been killed. The mortality values determined thus are recalculated using the Colby-formula (see sheet 1).

[3] = system: larvae of the cotton boll worm (Heliothis armigera); experiment: Heliothis armigera - spray test
Source text: as §1, §2, §3
To produce a suitable preparation of active compound, 1 part by weight of active compound is mixed with the stated amount of solvent and is diluted with water, containing an emulsifier concentration of 1000 ppm, to the desired concentration. Further test concentrations are prepared by dilution with emulsifier containing water Ammonium salt and/or penetration enhancer in a dosage of 1000 ppm are added to the desired concentration if necessary.
Cotton plants (Gossypium hirsutum) are treated by being sprayed with the preparation of the active compound of the desired concentration and are infested with larvae of the cotton boll worm (Heliothis armigera).
After the specified period of time, the mortality in % is determined 100% means all caterpillars have been killed; 0% means none of the caterpillars have been killed. The mortality values determined thus are recalculated using the Colby-formula (see sheet 1).

[4] = system: mustard beetle larvae (Phaedon cochleariae); experiment: Phaedon cochleariae - spray test; details: 20 g ai/ha
Source text: as §1, §2, §3
To produce a suitable preparation of active compound, 1 part by weight of active compound is mixed with the stated amount of solvents and is diluted with water, containing an emulsifier concentration of 1000 ppm, to the desired concentration. […]
After the specified period of time, mortality in % is determined 100% means all beetle larvae have been killed and 0% means none of the beetle larvae have been killed. The mortality values determined thus are recalculated using the Colby-formula (see sheet 1).

**Q.** What does the source list for `C/C(=N\C#N)N(C)Cc1ccc(Cl)nc1` [Acetamiprid]?
**A.** Efficacy in % after 6d ([1]; 1.6 g ai/ha): 70%; Efficacy in % after 6d ([2]; 0.8 g ai/ha): 0%

**Q.** Which results are given for `CN/C(=N\[N+](=O)[O-])NCc1cnc(Cl)s1` [Clothianidin]?
**A.** Efficacy in % after 6d ([1]; 0.15 g ai/ha): 0%; Efficacy in % after 2d ([2]; 4 g ai/ha): 0%

**Q.** `CN/C(=N/CC1CCOC1)N[N+](=O)[O-]` (stereo not drawn) [Dinotefuran] was tested. Which “Efficacy in % after 6d” value ([1]; 4.8 g ai/ha) did it give?
**A.** 0%

**Q.** What about the “Efficacy in % after 6d” value ([1]; 9.6 g ai/ha) of the same compound?
**A.** 70%

**Q.** What about the “Efficacy in % after 6d” value ([2]; 4 g ai/ha) of the same compound?
**A.** 0%

**Q.** What about the “Efficacy in % after 2d” value ([2]; 20 g ai/ha) of the same compound?
**A.** 0%

**Q.** Which “Efficacy in % after 1d” value ([3]; 80 ppm) does the source give for `O=[N+]([O-])NC1=NCCN1Cc1ccc(Cl)nc1` [Imidacloprid] here?
**A.** 0%

**Q.** What about the “Efficacy in % after 1d” value ([3]; 160 ppm) of the same compound?
**A.** 0%

**Q.** What about the “Efficacy in % after 1d” value ([3]; 320 ppm) of the same compound?
**A.** 30%

**Q.** What about the “Efficacy in % after 2d” value ([3]; 320 ppm, after 2 d) of the same compound?
**A.** 70%

**Q.** What about the “Efficacy in % after 2d” value ([2]; 0.8 g ai/ha) of the same compound?
**A.** 0%

**Q.** And the “Efficacy in % after 2d” value ([2]; 4 g ai/ha)?
**A.** 0%

**Q.** `N#C/N=C1\SCCN1Cc1ccc(Cl)nc1` [Thiacloprid] was tested. Which “Efficacy in % after 1d” value ([1]; 0.8 g ai/ha, after 1 d) did it give?
**A.** 0%

**Q.** Which “Efficacy in % after 2d” value ([4]; after 2 d, Chinese cabbage leaf disks) does the source give for `CN1COCN(Cc2cnc(Cl)s2)/C1=N\[N+](=O)[O-]` [Thiamethoxam] here?
**A.** 0%

**Q.** What about the “Efficacy in % after 6d” value ([4]; after 6 d) of the same compound?
**A.** 0%

**Q.** Which “Efficacy in % after 2d” value ([2]; 20 g ai/ha) does the source give for `CS(=O)(=O)NC(=O)c1cccc(-c2cnc(-c3cccnc3)s2)n1` [Thiazolamid (II-11)] here?
**A.** 0%
